Patent US20240199623A1 (ILDONG PHARMACEUTICAL CO., LTD., priority 2020, published 2024)
Values after ≈ are worked out from the molar mass of the structure shown.

Key:
human wild type-CFTR [1] = target: T1, human wild type-CFTR (Homo sapiens, UniProt P13569); assay: Short-circuit current measurement; type: cell-based; design: expressed in transfected cells; conditions: FRT cells expressing human wild type-CFTR; Forskolin 20 μM signal used as 100% activity; read-out: Short-circuit current measurement (EC50) Concentration range
T1 sequence (P13569 whole entry): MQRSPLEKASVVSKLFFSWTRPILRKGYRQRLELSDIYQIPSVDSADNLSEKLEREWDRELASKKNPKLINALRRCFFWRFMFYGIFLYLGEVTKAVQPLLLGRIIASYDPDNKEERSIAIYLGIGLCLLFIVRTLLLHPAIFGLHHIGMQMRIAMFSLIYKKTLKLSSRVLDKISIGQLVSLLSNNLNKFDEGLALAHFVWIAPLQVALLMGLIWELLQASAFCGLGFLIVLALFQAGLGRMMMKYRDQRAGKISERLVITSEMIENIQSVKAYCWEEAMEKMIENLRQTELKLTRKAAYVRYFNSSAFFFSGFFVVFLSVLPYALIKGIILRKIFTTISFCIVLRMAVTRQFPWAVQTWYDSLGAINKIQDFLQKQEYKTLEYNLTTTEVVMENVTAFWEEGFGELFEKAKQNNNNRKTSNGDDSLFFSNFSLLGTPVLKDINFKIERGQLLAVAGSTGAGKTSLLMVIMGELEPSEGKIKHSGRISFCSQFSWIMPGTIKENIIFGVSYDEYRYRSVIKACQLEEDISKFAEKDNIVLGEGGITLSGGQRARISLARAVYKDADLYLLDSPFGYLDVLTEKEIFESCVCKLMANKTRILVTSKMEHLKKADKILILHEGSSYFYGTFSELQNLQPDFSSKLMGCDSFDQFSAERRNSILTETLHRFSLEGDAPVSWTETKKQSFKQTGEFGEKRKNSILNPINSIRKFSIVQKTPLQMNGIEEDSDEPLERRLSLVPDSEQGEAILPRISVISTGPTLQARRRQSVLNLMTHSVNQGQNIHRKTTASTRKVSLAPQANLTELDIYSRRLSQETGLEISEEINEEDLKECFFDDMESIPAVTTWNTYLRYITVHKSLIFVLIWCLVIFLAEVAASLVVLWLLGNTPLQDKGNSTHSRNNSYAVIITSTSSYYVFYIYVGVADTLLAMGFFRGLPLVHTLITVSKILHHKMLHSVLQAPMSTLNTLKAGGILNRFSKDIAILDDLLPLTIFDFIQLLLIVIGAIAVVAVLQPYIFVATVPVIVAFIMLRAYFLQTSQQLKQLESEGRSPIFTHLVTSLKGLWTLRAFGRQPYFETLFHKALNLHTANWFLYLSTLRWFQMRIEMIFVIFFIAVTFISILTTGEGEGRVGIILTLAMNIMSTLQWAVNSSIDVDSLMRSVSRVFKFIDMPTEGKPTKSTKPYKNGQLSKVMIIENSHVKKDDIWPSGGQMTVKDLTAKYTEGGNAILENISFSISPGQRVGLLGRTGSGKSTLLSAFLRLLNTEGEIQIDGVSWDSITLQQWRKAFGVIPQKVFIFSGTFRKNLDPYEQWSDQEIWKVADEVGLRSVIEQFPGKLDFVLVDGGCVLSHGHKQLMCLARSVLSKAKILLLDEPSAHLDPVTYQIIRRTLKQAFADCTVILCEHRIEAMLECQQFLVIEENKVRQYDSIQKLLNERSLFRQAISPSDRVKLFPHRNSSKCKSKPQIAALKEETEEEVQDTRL
Description: Forskolin (Tocris cat. #1099), CFTRinh-172 (Tocris cat. #3430), amphotericin B (Tocris cat. #6930), dimethyl sulfoxide (Sigma cat. #D4540), EVC4000 Multi-Channel V/I Clamp (World Precision Instruments, Sarasota, FL), PowerLab 4/35 (AD Instruments, Castle Hill, Australia), Labchart Pro 7, GraphPad Prism 5 (GraphPad Software, Inc.). Fisher rat thyroid (FRT) cells expressing human wild type-CFTR were provided by Dr. Alan Verkman (University of California, San Francisco) and grown in DMEM/F12 medium (1:1) supplemented with 10% FBS, 2 mM glutamine, 100 units/ml penicillin and 100 μg/ml streptomycin. Snapwell inserts containing CF TR-expressing FRT cells were mounted in Ussing chambers (Physiologic Instruments, San Diego, CA). […] Forskolin, test compounds, and CFTRinh-172 were added to the apical and basolateral bath solution. Apical membrane current and short-circuit current were measured with an EVC4000 Multi-Channel V/I Clamp (World Precision Instruments, Sarasota, FL) and recorded using PowerLab 4/35 (AD Instruments, Castle Hill, Australia). Data were collected and analyzed with ADInstruments acquisition software Labchart Pro 7 software. The sampling rate was 4 Hz.

human wild type-CFTR [2] = target: T1, human wild type-CFTR; assay: Cell-based YFP assay; design: expressed in transfected cells; host or cells: CHO-K1 (Chinese hamster ovary); conditions: CHO-K1 cells expressing human wild type-CFTR and YFP-H148Q/I152L; forskolin 20 μM = 100% activity; read-out: Cell-based YFP Assay (EC50) Concentration Range
Method in brief: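 CHO-K1 cells co-expressing human wild-type CFTR and YFP-H148Q/I152L halide sensor, grown 48 h at 37 °C, then in PBS. YFP quenching by I⁻ influx read at 37 °C after adding 140 mM I⁻ solution, sampled every 0.4 s for 14 s. Triplicates averaged; EC50 fitted.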

[3] = Phosphate-buffered saline (PBS) solubility of compounds; type: physicochemical; conditions: aqueous buffer, thermodynamic from solid, PBS pH 7.5, 0.5 mg/mL, vortexed 90 min, filtered, LC-MS/MS, read-out: Solubility Range
Protocol: PBS solutions (pH 7.5) were prepared according to the following compositions and stored at 4° C. Test compounds were dissolved in PBS (pH 7.5) at 0.5 mg/mL and vortexed for 90 min. The PBS solution was sequentially filtered through a 0.45, 1.2, […] syringe filter. Concentration of test compounds were determined using LC-MS/MS with appropriate dilution of the samples.

## COc1ccc(-c2ccnc3cc(C(=O)Nc4ccc(N5CCCC5)cn4)nn23)cc1OC [Compound 289, 7-(3,4-dimethoxyphenyl)-N-(5-(pyrrolidin-1-yl)pyridin-2-yl)pyrazolo[1,5-a]pyrimidine-2-carboxamide]
Human wild type-CFTR [1]
  EC50: < 200 nM
Human wild type-CFTR [2]
  EC50: < 200 nM

## COc1ccc(-c2ccnc3cc(C(=O)Nc4ccc(OC(=O)[C@@H](NC(=O)OC(C)(C)C)C(C)C)cc4)nn23)cc1OC [Compound 200, 4-(7-(3,4-dimethoxyphenyl)pyrazolo[1,5-a]pyrimidine-2-carboxamido)phenyl(tert-butoxycarbonyl)-L-valinate]
Human wild type-CFTR [1]
  EC50: < 200 nM
Human wild type-CFTR [2]
  EC50: < 200 nM

## COc1ccc(-c2ccnc3cc(C(=O)N4CCN(C(=O)OC(C)(C)C)CC4)nn23)cc1OC [Compound 62, tert-butyl 4-(7-(3,4-dimethoxyphenyl)pyrazolo[1,5-a]pyrimidine-2-carbonyl)piperazine-1-carboxylate]
[3]
  solubility at 90 min: 0.1 to 10 µg/mL (≈ 0.214 to 21.4 µM)
Human wild type-CFTR [2]
  EC50: 200 to 2000 nM

## COc1ccc(-c2ccnc3cc(C(=O)N[C@H]4CC[C@H](C(=O)N5CCN(C(=O)OC(C)(C)C)CC5)CC4)nn23)cc1OC [Compound 76, tert-butyl 4-((1R,4R)-4-(7-(3,4-dimethoxyphenyl)pyrazolo [1,5-a]pyrimidine-2-carboxamido)cyclohexane-1-carbonyl)piperazine-1-carboxylate]
[3]
  solubility at 90 min: 0.1 to 10 µg/mL (≈ 0.169 to 16.9 µM)
Human wild type-CFTR [2]
  EC50: 200 to 2000 nM

## COC(=O)[C@H](CO)NC(=O)c1ccc(NC(=O)c2cc3nccc(-c4ccc(OC)c(OC)c4)n3n2)cc1 [Compound 43, methyl (4-(7-(3,4-dimethoxyphenyl)pyrazolo [1,5-a]pyrimidine-2-carboxamido)benzoyl)-L-serinate]
[3]
  solubility at 90 min: < 0.1 µg/mL
Human wild type-CFTR [2]
  EC50: < 200 nM

## COc1ccc(-c2ccnc3cc(C(=O)Nc4ccc(N5CCC(=O)CC5)cc4)nn23)cc1OC [Compound 285, 7-(3,4-dimethoxyphenyl)-N-(4-(4-oxopiperidin-1-yl)phenyl)pyrazolo [1,5-a]pyrimidine-2-carboxamide]
Human wild type-CFTR [1]
  EC50: < 200 nM
Human wild type-CFTR [2]
  EC50: < 200 nM

## COc1ccc(-c2ccnc3cc(C(=O)Nc4ccc(C(=O)N5CCN(C)CC5)cc4Cl)nn23)cc1OC [Compound 137, N-(2-chloro-4-(4-methylpiperazine-1-carbonyl)phenyl)-7-(3,4-dimethoxyphenyl)pyrazolo [1,5-a]pyrimidine-2-carboxamide]
Human wild type-CFTR [1]
  EC50: 200 to 2000 nM
Human wild type-CFTR [2]
  EC50: 200 to 2000 nM

## COC(=O)[C@H](Cc1ccccc1)NC(=O)c1ccc(NC(=O)c2cc3nccc(-c4ccc(OC)c(OC)c4)n3n2)cc1 [Compound 46, methyl (4-(7-(3,4-dimethoxyphenyl)pyrazolo [1,5-a]pyrimidine-2-carboxamido)benzoyl)-L-phenylalaninate]
[3]
  solubility at 90 min: < 0.1 µg/mL
Human wild type-CFTR [2]
  EC50: < 200 nM

## CCOc1ccc(NC(=O)Nc2cc3nccc(-c4ccc(OC)c(OC)c4)n3n2)cc1 [Compound 109, 1-(7-(3,4-dimethoxyphenyl)pyrazolo[1,5-a]pyrimidin-2-yl)-3-(4-ethoxyphenyl)urea]
[3]
  solubility at 90 min: < 0.1 µg/mL
Human wild type-CFTR [2]
  EC50: 200 to 2000 nM

## COc1ccc(-c2ccnc3cc(C(=O)Nc4ccc(C(N)=O)cc4)nn23)cc1OC [Compound 48, N-(4-carbamoylphenyl)-7-(3,4-dimethoxyphenyl)pyrazolo [1,5-a]pyrimidine-2-carboxamide]
[3]
  solubility at 90 min: < 0.1 µg/mL
Human wild type-CFTR [2]
  EC50: < 200 nM

## COc1ccc(-c2ccnc3cc(C(=O)Nc4ccc(NC(=O)CN)cc4)nn23)cc1OC [Compound 283, N-(4-(2-aminoacetamido)phenyl)-7-(3,4-dimethoxyphenyl)pyrazolo [1,5-a]pyrimidine-2-carboxamide]
[3]
  solubility at 90 min: < 0.1 µg/mL
Human wild type-CFTR [2]
  EC50: 200 to 2000 nM

## COC(=O)[C@H](CC(C)C)NC(=O)c1ccc(NC(=O)c2cc3nccc(-c4ccc(OC)c(OC)c4)n3n2)cc1 [Compound 57, methyl (4-(7-(3,4-dimethoxyphenyl)pyrazolo [1,5-a]pyrimidine-2-carboxamido)benzoyl)-L-leucinate]
[3]
  solubility at 90 min: < 0.1 µg/mL
Human wild type-CFTR [2]
  EC50: < 200 nM

## COc1ccc(-c2ccnc3cc(C(=O)Nc4cccc(C(=O)N5CCN(C(=O)OC(C)(C)C)CC5)c4)nn23)cc1OC [Compound 56, tert-butyl 4-(3-(7-(3,4-dimethoxyphenyl)pyrazolo [1,5-a]pyrimidine-2-carboxamido)benzoyl) piperazine-1-carboxylate]
[3]
  solubility at 90 min: < 0.1 µg/mL
Human wild type-CFTR [2]
  EC50: < 200 nM

## CCOC(=O)N1CCN(C(=O)c2cc3nccc(-c4ccc(OC)c(OC)c4)n3n2)CC1 [Compound 111, ethyl 4-(7-(3,4-dimethoxyphenyl)pyrazolo[1,5-a]pyrimidine-2-carbonyl) piperazine-1-carboxylate]
Human wild type-CFTR [1]
  EC50: ≥ 2000 nM
Human wild type-CFTR [2]
  EC50: 200 to 2000 nM

## COc1ccc(-c2ccnc3cc(C(=O)Nc4cccnc4)nn23)cc1OC [Compound 18, 7-(3,4-dimethoxyphenyl)-N-(pyridin-3-yl) pyrazolo[1,5-a]pyrimidine-2-carboxamide]
[3]
  solubility at 90 min: < 0.1 µg/mL
Human wild type-CFTR [2]
  EC50: 200 to 2000 nM

## COC(=O)[C@@H]1CCCN1C(=O)c1ccc(NC(=O)c2cc3nccc(-c4ccc(OC)c(OC)c4)n3n2)cc1 [Compound 47, methyl (4-(7-(3,4-dimethoxyphenyl)pyrazolo [1,5-a]pyrimidine-2-carboxamido)benzoyl)-L-prolinate]
[3]
  solubility at 90 min: < 0.1 µg/mL
Human wild type-CFTR [2]
  EC50: < 200 nM

## COc1ccc(-c2ccnc3cc(C(=O)Nc4ccccc4)nn23)cc1OC [Compound 1, 7-(3,4-dimethoxyphenyl)-N-phenylpyrazolo[1,5-a] pyrimidine-2-carboxamide]
[3]
  solubility at 90 min: < 0.1 µg/mL
Human wild type-CFTR [2]
  EC50: < 200 nM

## COc1ccc(-c2ccnc3cc(C(=O)N4CC[C@H](NC(=O)OC(C)(C)C)C4)nn23)cc1OC [Compound 145, tert-butyl (S)-(1-(7-(3,4-dimethoxyphenyl)pyrazolo [1,5-a]pyrimidine-2-carbonyl)pyrrolidine-3-yl)carbamate]
[3]
  solubility at 90 min: 0.1 to 10 µg/mL (≈ 0.214 to 21.4 µM)
Human wild type-CFTR [2]
  EC50: 200 to 2000 nM

## COc1ccc(-c2ccnc3cc(C(=O)Nc4ccc(C(=O)N5CCOCC5)c(Cl)c4)nn23)cc1OC [Compound 160, N-(3-chloro-4-(morpholine-4-carbonyl)phenyl)-7-(3,4-dimethoxyphenyl) pyrazolo[1,5-a]pyrimidine-2-carboxamide]
[3]
  solubility at 90 min: < 0.1 µg/mL
Human wild type-CFTR [2]
  EC50: 200 to 2000 nM

## COc1ccc(-c2ccnc3cc(C(=O)Nc4ccc(C(=O)O)cn4)nn23)cc1OC [Compound 78, 6-(7-(3,4-dimethoxyphenyl)pyrazolo[1,5-a]pyrimidine-2-carboxamido) nicotinic acid]
Human wild type-CFTR [1]
  EC50: 200 to 2000 nM
Human wild type-CFTR [2]
  EC50: 200 to 2000 nM

## COc1ccc(-c2ccnc3cc(C(=O)Nc4ccc(C(=O)OCc5ccccc5)cn4)nn23)cc1OC [Compound 114, benzyl 6-(7-(3,4-dimethoxyphenyl)pyrazolo [1,5-a]pyrimidine-2-carboxamido)nicotinate]
[3]
  solubility at 90 min: < 0.1 µg/mL
Human wild type-CFTR [2]
  EC50: < 200 nM

## COC(=O)[C@H](C)NC(=O)c1ccc(NC(=O)c2cc3nccc(-c4ccc(OC)c(OC)c4)n3n2)cc1 [Compound 42, methyl (4-(7-(3,4-dimethoxyphenyl)pyrazolo [1,5-a]pyrimidine-2-carboxamido)benzoyl)-L-alaninate]
[3]
  solubility at 90 min: < 0.1 µg/mL
Human wild type-CFTR [2]
  EC50: < 200 nM

## COc1ccc(-c2ccnc3cc(C(=O)Nc4ccc(C(=O)OCCCN5CCOCC5)c(F)c4)nn23)cc1OC [Compound 163, 3-morpholinopropyl 4-(7-(3,4-dimethoxyphenyl)pyrazolo [1,5-a]pyrimidine-2-carboxamido)-2-fluorobenzoate]
[3]
  solubility at 90 min: < 0.1 µg/mL
Human wild type-CFTR [2]
  EC50: 200 to 2000 nM
